# Patent publication US12590062B2, “PD-1/PD-L1 inhibitors” (Gilead Sciences, Inc., priority 2017, dated 2026)
# Key:
# PD-1/PD-L1 = PD-1/PD-L1 (Homo sapiens, UniProt Q9NZQ7); test: PD-1/PD-L1 biochemical protein-protein interaction assay (ALPHA); assay type: binding; conditions: 0.3 nM His tagged PD-L1, 2.5 nM biotinylated Fc-PD-1, 60 minutes at 25° C., read-out: IC50 PD-L1-PD-1 Alpha IC50-mono PD-L1-fcP-D1
# In short: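 IC50 values derive from four-parameter fits of ALPHA signal decrease. Assay: 0.3 nM His-tagged PD-L1 with 2.5 nM biotinylated Fc-PD-1, Hepes pH 7.4 with 0.005% Tween 20 and 0.01% BSA, 60 min at 25° C, then anti-His acceptor and streptavidin donor beads.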
# PD-L1 = biological target: T1, PD-L1 (Homo sapiens, UniProt Q9NZQ7); test: PD-L1/PD-L1 dimerization biochemical protein-protein interaction assay (ALPHA); assay type: binding; conditions: compound-induced PD-L1 dimerization, head prints '1 nM' (0.5 nM His-tagged PD-L1 and 0.5 nM FLAG-tagged PD-L1), read-out: AC50 PDL1 Dimer Alpha 1 nM
# T1 construct: determine if they can specifically dimerize the extracellular domains of PD-L1
# T1 sequence (Q9NZQ7 19-238 limits assumed): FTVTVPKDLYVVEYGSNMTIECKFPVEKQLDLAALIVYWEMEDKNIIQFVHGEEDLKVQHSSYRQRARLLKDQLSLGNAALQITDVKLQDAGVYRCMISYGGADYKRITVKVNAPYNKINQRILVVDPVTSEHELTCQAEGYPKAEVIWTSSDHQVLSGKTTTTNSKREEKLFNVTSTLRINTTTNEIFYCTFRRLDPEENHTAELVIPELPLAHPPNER
# T1 sequence (Q9NZQ7 19-238 limits assumed): as above
# In short: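 After 2 h at 25 °C with compound, His- and FLAG-tagged PD-L1 ECDs (each 0.5 nM final; 25 mM Hepes pH 7.4, 150 mM NaCl) were detected by sequential anti-His acceptor and anti-FLAG donor bead incubations. Dose-response curves fitted to four-parameter equation for AC50.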
# PD-1/PD-L1 interaction = biological target: T2, PD-1/PD-L1 interaction (Homo sapiens, UniProt Q9NZQ7); test: PD-1/PD-L1 NFAT reporter co-culture assay; assay type: cell-based; conditions: Jurkat PD-1 NFAT-luciferase cells co-cultured with aAPC-PD-L1 CHO cells, 6 hrs at 37° C.; read-out: EC50 NFAT Luciferase
# T2 construct: expressed in transfected cells; host or cells: CHO cells (aAPC-PD-L1) co-cultured with Jurkat cells overexpressing PD-1 and an NFAT-luciferase reporter
# T2 sequence (Q9NZQ7 19-290): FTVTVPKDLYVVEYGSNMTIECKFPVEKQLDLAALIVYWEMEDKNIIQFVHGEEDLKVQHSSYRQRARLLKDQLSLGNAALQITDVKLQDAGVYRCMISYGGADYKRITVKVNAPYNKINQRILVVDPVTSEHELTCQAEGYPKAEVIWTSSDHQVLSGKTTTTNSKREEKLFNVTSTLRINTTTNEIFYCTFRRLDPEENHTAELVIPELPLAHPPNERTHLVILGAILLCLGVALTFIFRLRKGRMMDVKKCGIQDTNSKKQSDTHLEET
# In short: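 CHO aAPC-PD-L1 seeded overnight; PD-1/NFAT-luc Jurkat + cpd in RPMI 1640, 2% FBS added at once; 6 h, 37 °C; ONE-Glo luminescence; EC50, 4-parameter fit.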
# Sequence of PD-1/PD-L1 (Q9NZQ7 19-238 limits assumed): as the sequence (Q9NZQ7 19-238 limits assumed) above
SMILES,IC50 (PD-1/PD-L1) [nM],AC50 (PD-L1) [nM],EC50 (PD-1/PD-L1 interaction) [nM]
N#Cc1cncc(COc2nc(O[C@H]3CCc4c(-c5cccc6c5CC[C@@H]6Oc5nc(OCc6cncc(C#N)c6)c(CNCCO)cc5Br)cccc43)c(Br)cc2CNCCO)c1 [Example 751],4.51,182,355
N#Cc1cncc(COc2nc(O[C@H]3CCc4c(-c5cccc6c5CC[C@@H]6Oc5nc(OCc6cncc(C#N)c6)c(C6=NCCN6)cc5Br)cccc43)c(Br)cc2C2=NCCN2)c1 [Example 752],0.779,82.5,471
Cc1c(-c2ccc(OCCNC[C@@H](O)CC(=O)O)cc2)cccc1-c1cccc2c1CC[C@@H]2Oc1nc(OCc2cccc(C#N)c2)c(CNC[C@@H](O)CC(=O)O)cc1Br [Example 755],0.155,39.2,139
COc1nc(-c2cccc(-c3cccc4c3CC[C@@H]4Oc3nc(OC)c(CN4CC5(C(=O)O)CCC4CC5)cc3Cl)c2Cl)ccc1CNC[C@@H]1CCC(=O)N1 [Example 766],0.064,19.4,21
COc1nc(O[C@H]2CCc3c(-c4cccc(-c5cnc(CN6CC7(C6)CN(C(C)=O)C7)c(OC)n5)c4Cl)cccc32)c(Cl)cc1CN1CC[C@@H](C(=O)O)C1 [Example 767],0.064,75.7,57
COc1nc(O[C@H]2CCc3c(-c4cccc(-c5cnc(CNC[C@@H]6CCC(=O)N6)c(OC)n5)c4Cl)cccc32)c(Cl)cc1CN1CC[C@@H](C(=O)O)C1 [Example 768],0.064,47.4,33
COc1nc(-c2cccc(-c3cccc4c3CC[C@@H]4Oc3nc(OC)c(CN4CC[C@@H](C(=O)O)C4)cc3Cl)c2Cl)ccc1CNC[C@@H]1CCC(=O)N1 [Example 769],0.064,28.1,25
CCOC(=O)[C@@H]1CCN(Cc2cc(Cl)c(O[C@H]3CCc4c(-c5cccc(-c6ccc(CN7CC8(C7)CN(C(C)=O)C8)cc6)c5Cl)cccc43)nc2OC)C1 [Example 770],0.418,700,856
COc1nc(O[C@H]2CCc3c(-c4cccc(-c5ccc(CN6CC7(C6)CN(C(C)=O)C7)cc5)c4Cl)cccc32)c(Cl)cc1CN1CC[C@@H](C(=O)O)C1 [Example 771],0.064,45,130
COc1nc(O[C@H]2CCc3c(-c4cccc(-c5ccc(CNCCO)cc5)c4Cl)cccc32)c(Cl)cc1CNCCO [Example 772],0.552,19.5,≥ 50000
COc1nc(O[C@H]2CCc3c(-c4cccc(-c5ccc(CN6CC7(CCC(=O)N7)C6)cc5)c4Cl)cccc32)c(Cl)cc1CN1CC2(CCC(=O)N2)C1 [Example 773],0.638,≥ 10000,2100
COc1nc(O[C@H]2CCc3c(-c4cccc(-c5ccc(C6=N[C@@H](C)CN6)c(OC)n5)c4Cl)cccc32)c(Br)cc1CN1CC[C@H](O)[C@H](F)C1 [Example 774],1.31,2730,463
COc1nc(O[C@H]2CCc3c(-c4cccc(-c5ccc(C6=NCCN6)c(OC)n5)c4Cl)cccc32)c(Br)cc1CN1CC2(C1)CN(C(C)=O)C2 [Example 775],0.276,68,84
CCOC(=O)[C@@H]1CCCCN1Cc1cc(Br)c(O[C@H]2CCc3c(-c4cccc(-c5ccc(C6=NCCN6)c(OC)n5)c4Cl)cccc32)nc1OC [Example 776],8.31,≥ 10000,1440
COc1cc(-c2cccc(-c3cccc4c3CC[C@@H]4Oc3ccc(CN[C@@](C)(CO)C(=O)O)c(OC)n3)c2Cl)ccc1C1=NCCN1 [Example 777],0.064,45.8,179
COc1nc(O[C@H]2CCc3c(-c4cccc(-c5ccc(C6=N[C@H](C)CN6)c(OC)n5)c4Cl)cccc32)ccc1CN[C@@](C)(CO)C(=O)O [Example 778],0.113,259,212

# More lines, now with the values ahead:
IC50 (PD-1/PD-L1) [nM],AC50 (PD-L1) [nM],EC50 (PD-1/PD-L1 interaction) [nM],SMILES
0.064,19.2,113,COc1nc(-c2cccc(-c3cccc4c3CC[C@@H]4Oc3nc(OCc4cncc(C#N)c4)c(CN[C@@](C)(CO)C(=O)O)cc3Cl)c2Cl)ccc1C1=NCCN1 [Example 745]
0.064,104,143,COc1nc(-c2cccc(-c3cccc4c3CC[C@@H]4Oc3ccc(CN[C@@](C)(CO)C(=O)O)c(OCc4cncc(C#N)c4)n3)c2Cl)ccc1C1=NCCN1 [Example 746]
0.064,5.36,10,COc1nc(-c2cccc(-c3cccc4c3CC[C@@H]4Oc3nc(OCc4cncc(C#N)c4)c(CN[C@@](C)(CO)C(=O)O)cc3Br)c2Cl)ccc1CNC[C@@H]1CCC(=O)N1 [Example 747]
0.064,10.1,24,COc1nc(-c2cccc(-c3cccc4c3CC[C@@H]4Oc3nc(OCc4cncc(C#N)c4)c(CN[C@@](C)(CO)C(=O)O)cc3Br)c2C)ccc1C1=NCCN1 [Example 748]
0.064,16.8,77,COc1nc(-c2cccc(-c3cccc4c3CC[C@@H]4Oc3nc(OCc4cncc(C#N)c4)c(CN[C@@](C)(CO)C(=O)O)cc3Cl)c2C)ccc1C1=NCCN1 [Example 749]
0.064,72.1,222,COc1nc(-c2cccc(-c3cccc4c3CC[C@@H]4Oc3ccc(CN[C@@](C)(CO)C(=O)O)c(OCc4cncc(C#N)c4)n3)c2C)ccc1C1=NCCN1 [Example 750]
0.064,17.6,15,COc1nc(-c2cccc(-c3cccc4c3CC[C@@H]4Oc3nc(OC)c(CN4CC(C(=O)O)C4)cc3Cl)c2Cl)ccc1CNC[C@@H]1CCC(=O)N1 [Example 757]
0.064,36.7,29,COc1nc(-c2cccc(-c3cccc4c3CC[C@@H]4Oc3nc(OC)c(CN4CCC[C@@H](C(=O)O)C4)cc3Cl)c2Cl)ccc1CNC[C@@H]1CCC(=O)N1 [Example 758]
0.064,18.9,16,COc1nc(-c2cccc(-c3cccc4c3CC[C@@H]4Oc3nc(OC)c(CN4CCC[C@H](C(=O)O)C4)cc3Cl)c2Cl)ccc1CNC[C@@H]1CCC(=O)N1 [Example 759]
0.064,44.2,63,COc1nc(-c2cccc(-c3cccc4c3CC[C@@H]4Oc3nc(OC)c(CN4C[C@H](C(=O)O)[C@@H](C(C)C)C4)cc3Cl)c2Cl)ccc1CNC[C@@H]1CCC(=O)N1 [Example 760]
0.064,13.2,10,COc1nc(-c2cccc(-c3cccc4c3CC[C@@H]4Oc3nc(OC)c(CN4CCCC(C)(C(=O)O)C4)cc3Cl)c2Cl)ccc1CNC[C@@H]1CCC(=O)N1 (stereo partly drawn) [Example 761]
0.064,13.6,18,COc1nc(-c2cccc(-c3cccc4c3CC[C@@H]4Oc3nc(OC)c(CN4CCCC(O)(C(=O)O)C4)cc3Cl)c2Cl)ccc1CNC[C@@H]1CCC(=O)N1 (stereo partly drawn) [Example 762]
0.064,11.3,10,COc1nc(-c2cccc(-c3cccc4c3CC[C@@H]4Oc3nc(OC)c(CN4CCC(C)(C(=O)O)C4)cc3Cl)c2Cl)ccc1CNC[C@@H]1CCC(=O)N1 (stereo partly drawn) [Example 763]
0.064,31.9,23,COc1nc(-c2cccc(-c3cccc4c3CC[C@@H]4Oc3nc(OC)c(CN4CCC[C@H](C(=O)O)[C@@H]4C)cc3Cl)c2Cl)ccc1CNC[C@@H]1CCC(=O)N1 [Example 764]
0.064,13.1,11,COc1nc(-c2cccc(-c3cccc4c3CC[C@@H]4Oc3nc(OC)c(CN4C[C@@H](C)[C@H](C(=O)O)C4)cc3Cl)c2Cl)ccc1CNC[C@@H]1CCC(=O)N1 [Example 765]
